# What was measured:
# [1] = test system: H1975; assay: CellTiter-Glo cell viability, H1975; format: cell-based; conditions: Homo sapiens, NCI-H1975, 72 h, read-out: H1975 CTG IC50
# In short: (§1)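 Cells seeded, incubated 24 h at 37°C/5% CO2, then dosed with compound in DMSO at various concentrations for 72 h. Viability read as ATP luminescence (CellTiter-Glo); DMSO and 10 µM staurosporine controls, IC50 from dose-response fit, runs accepted only with Z' ≥ 0.5.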
# [2] = biological target: EGFR L858R (Homo sapiens, UniProt P00533, L858R); assay: Lance assay, EGFR L858R; conditions: biochemical Lance assay
# [3] = biological target: EGFR wt (Homo sapiens, UniProt P00533); assay: Lance assay, EGFR wt; conditions: biochemical Lance assay
# [4] = biological target: EGFR T790M L858R (Homo sapiens, UniProt P00533, L858R/T790M); assay: Lance assay, EGFR T790M L858R; conditions: biochemical Lance assay
# [5] = test system: EGFR L858R T790M Ba/F3; assay: CellTiter-Glo cell viability, EGFR L858R T790M Ba/F3; format: cell-based; conditions: Mus musculus, BaF3, 72 h, read-out: EGFR L858R T790M Ba/F3 CTG IC50 /
# Method: (§2) The CellTiter-Glo Luminescent Cell Viability Assay (Promega) is a homogeneous method of determining the number of viable cells in culture. It is based on quantification of ATP, indicating the presence of metabolically active cells. Cells are seeded on day 1 at cell numbers that assure assay linearity and optimal signal intensity. After incubation for 24h in humidified chambers at 37°C and 5% CO2, compounds in DMSO are added at different concentrations. Cells are further incubated for 72 h at 37°C and 5% CO2. Cells treated with the compound vehicle DMSO are used as positive controls and cells treated with 10 µM Staurosporine serve as negative controls. At day 5 the CellTiter Glo Reagent is prepared according to the instructions of the kit (Promega Inc.): Reagent is mixed 1:1 with cell culture medium. Thereon, mixture and assay plates are equilibrated at room temperature for 20 min. Equal volumes of the reagent-medium-mixture is added to the volume of culture medium present in each well. The plates are mixed at ∼200 rpm for 2 minutes on an orbital shaker. The microplates are then incubated at room temperature for 10 minutes for stabilization of the luminescent signal. Following incubation the luminescence is recorded on a Victor microplate reader (Perkin Elmer) using a 200 ms integration time. The data is then analyzed with Excel using the XLFIT Plugin (dose response Fit 205) for IC50-determination. As quality control the Z'-factor is calculated from 16 positive and negative control values. Only assay results showing a Z'-factor ≥ 0.5 are used for further analysis.
# [6] = test system: EGFR vIII Ba/F3; assay: CellTiter-Glo cell viability, EGFR vIII Ba/F3; format: cell-based; conditions: Mus musculus, BaF3, 72 h, read-out: EGFR vIII Ba/F3 CTG IC50 /
# In short: as §1
# [7] = test system: Her2 Exon 20 InsYVMA Ba/F3; assay: CellTiter-Glo cell viability, Her2 Exon 20 InsYVMA Ba/F3; format: cell-based; conditions: Mus musculus, BaF3, 72 h, read-out: Her2 Exon 20 InsYVMA Ba/F3 CTG IC50
# In short: as §1
# [8] = biological target: T1, HER2 INS YVMA (Homo sapiens, UniProt P04626, INS775YVMA); assay: Lance Kinase Activity Assay, Her2 Exon 20 InsYVMA; conditions: biochemical Lance assay
# T1 construct: purchased DPF
# In short: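 TR-FRET (LANCE) assay: HER2 ex20 YVMA kinase phosphorylates ULight-peptide; compounds in 8-point 1:3 dilutions from 10 mM DMSO stock; ATP-started, 1 h at room temperature, stopped with EDTA plus Eu-anti-phosphopeptide antibody, 1 h more. Read 665/615 nm emission; IC50 from sigmoidal dose-response curves.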
# [9] = test system: A431; assay: CellTiter-Glo cell viability, A431; format: cell-based; conditions: Homo sapiens, A-431, 72 h, read-out: A431 CTG IC50
# In short: as §1
# [10] = test system: Cuto-17; assay: CellTiter-Glo cell viability, Cuto-17; format: cell-based; conditions: CUTO17, 72 h, read-out: Cuto-17 CTG IC50
# In short: as §1
# [11] = test system: EGFR L858R Ba/F3; assay: CellTiter-Glo cell viability, EGFR L858R Ba/F3; format: cell-based; conditions: Mus musculus, BaF3, 72 h, read-out: EGFR L858R Ba/F3 CTG IC50 /
# Method: as §2
# [12] = test system: EGFR Exon 20 InsNPH Ba/F3; assay: CellTiter-Glo cell viability, EGFR Exon 20 InsNPH Ba/F3; format: cell-based; conditions: Mus musculus, BaF3, 72 h, read-out: EGFR Exon 20 InsNPH Ba/F3 CTG IC50
# In short: as §1
# [13] = biological target: EGFR (del746-750) (Homo sapiens, UniProt P00533, DEL746-750); assay: Lance assay, EGFR (del746-750); conditions: biochemical Lance assay
# EGFR (del746-750), sequence (P00533 with tags, fused parts or gaps DEL746-750): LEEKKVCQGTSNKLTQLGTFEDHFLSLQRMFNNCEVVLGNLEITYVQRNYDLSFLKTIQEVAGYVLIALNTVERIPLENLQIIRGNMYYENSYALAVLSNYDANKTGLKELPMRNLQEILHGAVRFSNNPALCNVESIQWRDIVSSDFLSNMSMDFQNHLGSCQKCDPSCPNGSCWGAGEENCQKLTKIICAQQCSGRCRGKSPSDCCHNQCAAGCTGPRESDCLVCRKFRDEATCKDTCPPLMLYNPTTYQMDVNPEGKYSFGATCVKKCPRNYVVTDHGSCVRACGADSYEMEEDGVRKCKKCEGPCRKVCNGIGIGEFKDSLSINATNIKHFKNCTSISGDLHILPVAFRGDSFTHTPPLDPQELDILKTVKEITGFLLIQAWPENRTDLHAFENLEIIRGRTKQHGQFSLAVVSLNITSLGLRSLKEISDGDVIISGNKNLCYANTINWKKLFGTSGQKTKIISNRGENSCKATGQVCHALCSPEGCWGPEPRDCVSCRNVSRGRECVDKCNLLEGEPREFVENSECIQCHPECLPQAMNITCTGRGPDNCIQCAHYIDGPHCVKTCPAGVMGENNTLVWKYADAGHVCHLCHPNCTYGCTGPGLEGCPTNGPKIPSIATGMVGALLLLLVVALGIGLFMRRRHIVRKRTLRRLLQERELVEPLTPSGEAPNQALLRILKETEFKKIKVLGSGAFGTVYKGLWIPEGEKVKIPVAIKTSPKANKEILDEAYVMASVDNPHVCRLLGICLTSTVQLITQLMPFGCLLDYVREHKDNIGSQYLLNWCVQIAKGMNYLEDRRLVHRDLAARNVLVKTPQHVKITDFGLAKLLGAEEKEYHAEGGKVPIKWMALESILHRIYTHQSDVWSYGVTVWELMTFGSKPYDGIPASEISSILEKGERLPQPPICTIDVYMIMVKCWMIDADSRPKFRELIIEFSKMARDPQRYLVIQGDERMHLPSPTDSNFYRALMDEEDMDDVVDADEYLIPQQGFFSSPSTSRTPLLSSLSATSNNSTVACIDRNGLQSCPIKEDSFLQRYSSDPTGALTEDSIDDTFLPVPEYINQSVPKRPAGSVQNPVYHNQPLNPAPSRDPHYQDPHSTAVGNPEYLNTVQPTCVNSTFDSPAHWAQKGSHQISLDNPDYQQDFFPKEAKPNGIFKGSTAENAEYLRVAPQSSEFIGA
# EGFR L858R, sequence (P00533 25-1210 L858R): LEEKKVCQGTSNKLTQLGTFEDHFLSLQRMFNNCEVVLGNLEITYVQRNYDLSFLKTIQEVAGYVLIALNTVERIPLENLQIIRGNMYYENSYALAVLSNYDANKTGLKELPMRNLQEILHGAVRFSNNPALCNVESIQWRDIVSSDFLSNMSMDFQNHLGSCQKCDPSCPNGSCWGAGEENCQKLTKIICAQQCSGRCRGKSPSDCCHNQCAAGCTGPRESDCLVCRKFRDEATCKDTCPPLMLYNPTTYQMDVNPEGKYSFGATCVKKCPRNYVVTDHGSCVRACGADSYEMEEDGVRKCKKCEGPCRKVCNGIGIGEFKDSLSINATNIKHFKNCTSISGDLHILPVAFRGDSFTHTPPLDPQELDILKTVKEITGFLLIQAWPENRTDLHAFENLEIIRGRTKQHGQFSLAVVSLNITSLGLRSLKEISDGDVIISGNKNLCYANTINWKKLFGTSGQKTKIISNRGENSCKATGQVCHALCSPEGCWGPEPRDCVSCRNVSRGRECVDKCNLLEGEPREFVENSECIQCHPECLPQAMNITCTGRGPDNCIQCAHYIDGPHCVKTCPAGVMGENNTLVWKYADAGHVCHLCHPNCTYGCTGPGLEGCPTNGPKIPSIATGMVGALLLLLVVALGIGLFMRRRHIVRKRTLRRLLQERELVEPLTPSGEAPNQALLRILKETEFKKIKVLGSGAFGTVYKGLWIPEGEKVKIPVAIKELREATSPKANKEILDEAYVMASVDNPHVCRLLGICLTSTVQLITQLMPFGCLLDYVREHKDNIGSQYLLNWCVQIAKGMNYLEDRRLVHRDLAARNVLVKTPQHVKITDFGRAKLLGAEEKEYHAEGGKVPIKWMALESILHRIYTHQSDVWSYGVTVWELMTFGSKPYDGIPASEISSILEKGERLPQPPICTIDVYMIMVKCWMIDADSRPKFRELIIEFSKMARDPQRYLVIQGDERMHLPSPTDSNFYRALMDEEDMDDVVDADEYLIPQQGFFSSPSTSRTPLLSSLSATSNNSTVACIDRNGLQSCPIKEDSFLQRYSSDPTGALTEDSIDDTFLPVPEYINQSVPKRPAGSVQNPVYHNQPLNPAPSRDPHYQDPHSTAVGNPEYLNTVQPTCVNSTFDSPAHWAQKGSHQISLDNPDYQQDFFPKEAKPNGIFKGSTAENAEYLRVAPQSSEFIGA
# T1 sequence (P04626 with tags, fused parts or gaps INS775YVMA): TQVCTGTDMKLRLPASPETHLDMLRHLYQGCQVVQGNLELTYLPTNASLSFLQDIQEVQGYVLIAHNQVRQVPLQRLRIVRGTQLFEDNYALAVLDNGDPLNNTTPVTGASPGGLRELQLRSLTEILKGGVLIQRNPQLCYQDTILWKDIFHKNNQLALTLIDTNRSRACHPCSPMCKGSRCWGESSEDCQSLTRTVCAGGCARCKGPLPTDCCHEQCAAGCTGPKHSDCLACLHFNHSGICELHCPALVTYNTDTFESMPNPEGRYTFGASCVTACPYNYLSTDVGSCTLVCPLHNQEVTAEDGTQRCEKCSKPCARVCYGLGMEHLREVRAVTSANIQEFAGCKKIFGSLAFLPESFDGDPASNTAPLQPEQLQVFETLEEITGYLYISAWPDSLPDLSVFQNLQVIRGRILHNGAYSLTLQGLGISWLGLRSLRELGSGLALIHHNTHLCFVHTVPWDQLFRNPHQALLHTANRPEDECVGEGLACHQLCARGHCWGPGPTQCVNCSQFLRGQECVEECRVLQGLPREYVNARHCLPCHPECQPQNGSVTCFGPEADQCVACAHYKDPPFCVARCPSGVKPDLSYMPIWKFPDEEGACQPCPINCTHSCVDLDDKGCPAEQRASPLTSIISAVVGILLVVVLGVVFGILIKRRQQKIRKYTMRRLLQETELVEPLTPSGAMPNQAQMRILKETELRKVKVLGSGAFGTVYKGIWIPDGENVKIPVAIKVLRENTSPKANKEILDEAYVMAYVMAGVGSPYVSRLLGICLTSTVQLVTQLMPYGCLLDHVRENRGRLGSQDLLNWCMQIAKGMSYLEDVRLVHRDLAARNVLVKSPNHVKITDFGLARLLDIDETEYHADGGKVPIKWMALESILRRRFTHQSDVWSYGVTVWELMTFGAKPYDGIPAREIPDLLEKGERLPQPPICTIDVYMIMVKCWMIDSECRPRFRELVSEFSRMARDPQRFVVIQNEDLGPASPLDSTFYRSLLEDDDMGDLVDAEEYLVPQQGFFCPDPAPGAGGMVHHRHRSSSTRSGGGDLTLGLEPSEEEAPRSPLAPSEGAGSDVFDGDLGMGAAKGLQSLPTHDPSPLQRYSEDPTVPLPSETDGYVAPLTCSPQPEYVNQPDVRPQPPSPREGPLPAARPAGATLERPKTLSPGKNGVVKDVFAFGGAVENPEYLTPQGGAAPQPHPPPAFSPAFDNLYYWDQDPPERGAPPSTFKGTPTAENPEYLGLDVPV
# EGFR T790M L858R, sequence (P00533 25-1210 T790M/L858R): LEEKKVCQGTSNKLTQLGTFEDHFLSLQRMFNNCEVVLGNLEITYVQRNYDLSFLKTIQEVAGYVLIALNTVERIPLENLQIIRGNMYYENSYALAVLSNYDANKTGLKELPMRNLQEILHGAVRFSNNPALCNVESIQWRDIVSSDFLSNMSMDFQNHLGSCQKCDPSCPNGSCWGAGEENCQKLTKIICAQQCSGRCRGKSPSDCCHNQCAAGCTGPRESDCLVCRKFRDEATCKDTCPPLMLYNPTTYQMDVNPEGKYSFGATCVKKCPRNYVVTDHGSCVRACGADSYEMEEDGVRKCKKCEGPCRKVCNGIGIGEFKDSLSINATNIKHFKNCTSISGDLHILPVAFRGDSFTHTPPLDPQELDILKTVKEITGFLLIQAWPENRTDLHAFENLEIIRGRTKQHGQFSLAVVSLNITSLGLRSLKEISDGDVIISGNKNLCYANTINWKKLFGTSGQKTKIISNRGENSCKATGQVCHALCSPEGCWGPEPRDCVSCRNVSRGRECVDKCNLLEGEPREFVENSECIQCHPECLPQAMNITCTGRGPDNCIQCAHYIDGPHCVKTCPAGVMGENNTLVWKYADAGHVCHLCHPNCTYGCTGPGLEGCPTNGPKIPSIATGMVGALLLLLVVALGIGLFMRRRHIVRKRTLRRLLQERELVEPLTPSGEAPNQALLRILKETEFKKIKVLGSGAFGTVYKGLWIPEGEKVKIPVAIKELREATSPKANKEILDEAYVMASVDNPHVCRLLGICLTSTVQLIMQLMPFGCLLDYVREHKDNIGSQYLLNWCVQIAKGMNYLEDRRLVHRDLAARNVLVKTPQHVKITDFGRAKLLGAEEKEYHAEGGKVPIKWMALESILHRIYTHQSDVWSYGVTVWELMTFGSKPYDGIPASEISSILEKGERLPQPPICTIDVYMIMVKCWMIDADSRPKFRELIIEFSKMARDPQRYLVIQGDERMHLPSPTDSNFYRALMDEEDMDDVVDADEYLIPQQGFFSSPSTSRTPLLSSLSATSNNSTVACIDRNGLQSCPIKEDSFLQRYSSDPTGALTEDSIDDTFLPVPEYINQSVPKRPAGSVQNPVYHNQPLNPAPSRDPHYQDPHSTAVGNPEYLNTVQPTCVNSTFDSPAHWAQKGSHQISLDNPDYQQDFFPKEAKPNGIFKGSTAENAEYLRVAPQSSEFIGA
SMILES,IC50 [1],IC50 [2],IC50 [3],IC50 [4],IC50 [5],IC50 [6],IC50 [7],IC50 [8],IC50 [9],IC50 [10],IC50 [11],IC50 [12],IC50 [13]
"C=CC(=O)Nc1cc(-c2c(-c3cnn(C)c3)[nH]c3ncc(C(=O)OC(C)C)cc23)ccc1C [Example 1, Isopropyl 3-(3-acrylamido-4-methylphenyl)-2-(1-methyl-1H-pyrazol-4-yl)-1H-pyrrolo[2,3-b]pyridine-5-carboxylate 2,2,2-trifluoroacetate]",500 to 1000 nM,≤ 50 nM,≤ 50 nM,≤ 50 nM,≤ 50 nM,100 to 500 nM,100 to 500 nM,50 to 100 nM,1000 to 10000 nM,500 to 1000 nM,≤ 50 nM,100 to 500 nM,≤ 50 nM
"C=CC(=O)Nc1cc(-c2c(-c3cnn(C)c3)[nH]c3ncc(OCC(C)C)cc23)ccc1C [Example 4, N-(5-(5-isobutoxy-2-(1-methyl-1H-pyrazol-4-yl)-1H-pyrrolo[2,3-b]pyridin-3-yl)-2-methylphenyl)acrylamide 2,2,2-trifluoroacetate]",100 to 500 nM,≤ 50 nM,≤ 50 nM,50 to 100 nM,≤ 50 nM,≤ 50 nM,100 to 500 nM,50 to 100 nM,1000 to 10000 nM,100 to 500 nM,≤ 50 nM,100 to 500 nM,≤ 50 nM
"C=CC(=O)Nc1cc(-c2c(-c3cnn(C)c3)[nH]c3ncc(C(=O)OC(C)C)c(C)c23)ccc1C [Example 7, isopropyl 3-(3-acrylamido-4-methylphenyl)-4-methyl-2-(1-methyl-1H-pyrazol-4-yl)-1H-pyrrolo[2,3-b]pyridine-5-carboxylate2,2,2-trifluoroacetate]",100 to 500 nM,≤ 50 nM,≤ 50 nM,≤ 50 nM,50 to 100 nM,50 to 100 nM,100 to 500 nM,100 to 500 nM,1000 to 10000 nM,100 to 500 nM,≤ 50 nM,50 to 100 nM,≤ 50 nM
